Laboratory results: paper PMC4744035, “In Vivo, In Vitro, and In Silico Characterization of Peptoids as Antimicrobial Agents” (PLoS ONE, 2016)
In brackets after ≈: the same amount, converted by molar mass.

Experiments:
Test in all cases: microbe, parasite or virus in culture
[1] = tested on: P. aeruginosa LES400 (MDR); conditions: Pseudomonas aeruginosa
Procedure: (§1) The MICs of test agents were measured using a modified broth micro-dilution method in Difco Mueller Hinton medium, on a panel of bacterial pathogens that were both susceptible and resistant to common antibiotics (S1 File). Briefly, serial dilutions were performed in 0.01% acetic acid containing 0.2% bovine serum albumin at 10-fold the desired final concentration. Ten μL of the 10-fold concentrated test reagents were added to each well of a 96-well polypropylene microtitre plate containing 90 μL of Mueller Hinton media per well. Bacteria were added to the plate from an overnight culture at a final concentration of 2–7 x 10^5 CFU/mL and incubated overnight at 37°C. The MIC is defined as the concentration at which no growth was observed.
(§2) Screening of peptoid antimicrobial activity against a panel of multidrug resistant superbugs was done according to the protocol described in the manuscript. The bacterial strains used in this panel included; P. aeruginosa PAO1 strain H103 [1], P. maltophilia ATCC#13637, S. aureus ATCC#25923 [1], E. faecalis ATCC#29212 [2], and E. cloacae 218R, constitutively expressing Class C chromosomal β-lactamase, were from the Hancock lab strains collection. An MRSA clinical isolate was kindly provided by Anthony Chow (Vancouver General Hospital, Vancouver, Canada). Two Klebsiella pneumoniae and two E. coli clinical isolates expressing extended spectrum β-lactamases (ESBL) were kindly provided by George Zhanel (Health Sciences Centre, Winnipeg, Canada). Vancomycin-resistant clinical isolates of Enterococcus faecalis and E. faecium were obtained from Ana M. Paccagnella (BC Centre for Disease Control, Vancouver, Canada). Three clinical isolates (#9, #198 and #213) of multi-drug resistant P. aeruginosa, were kindly provided by Carlos Kiffer (University of São Paulo, Brazil). […] Three P. aeruginosa clinical isolates of the Liverpool epidemic strain (LES) (H1027, H1030 and LES400) were all kindly provided by Craig Winstanley (University of Liverpool, UK). […] All tested bacterial strains were categorized as biohazard level 2 pathogens.

[2] = tested on: K. pneumonia 61962 (ESBL); conditions: Klebsiella pneumoniae
Procedure: as §1, §2

[3] = tested on: E. coli 63103 (ESBL); conditions: Escherichia coli
Procedure: as §1, §2

[4] = tested on: E. faecium mic80 (VRE); conditions: Enterococcus faecium, VRE
Procedure: as §1, §2

[5] = tested on: P. aeruginosa H1027 (MDR); conditions: Pseudomonas aeruginosa
Procedure: as §1, §2

[6] = tested on: P. aeruginosa 9 (MDR); conditions: Pseudomonas aeruginosa
Procedure: as §1, §2

[7] = tested on: E. coli 64771 (ESBL); conditions: Escherichia coli
Procedure: as §1, §2

[8] = tested on: P. maltophilia ATCC13637; conditions: Stenotrophomonas maltophilia, ATCC13637
Procedure: as §1, §2

[9] = tested on: E. faecalis F43559 (VRE); conditions: Enterococcus faecalis, VRE
Procedure: as §1, §2

[10] = tested on: P. aeruginosa 198 (MDR); conditions: Pseudomonas aeruginosa
Procedure: as §1, §2

[11] = tested on: E. faecium T62764 (VRE); conditions: Enterococcus faecium, VRE
Procedure: as §1, §2

[12] = tested on: E. faecalis W61950 (VRE); conditions: Enterococcus faecalis, VRE
Procedure: as §1, §2

[13] = tested on: S. aureus ATCC25923; conditions: Staphylococcus aureus, ATCC25923
Procedure: as §1, §2

[14] = tested on: E. faecalis ATCC29212; conditions: Enterococcus faecalis, ATCC29212
Procedure: as §1, §2

[15] = tested on: K. pneumonia 63575 (ESBL); conditions: Klebsiella pneumoniae
Procedure: as §1, §2

[16] = tested on: P. aeruginosa 213 (MDR); conditions: Pseudomonas aeruginosa
Procedure: as §1, §2

[17] = tested on: S. aureus C623 (MRSA); conditions: Staphylococcus aureus, MRSA
Procedure: as §1, §2

[18] = tested on: P. aeruginosa H103 (wild type); conditions: Pseudomonas aeruginosa
Procedure: as §1, §2

[19] = tested on: E. cloacae 218R Class C β-lactamase; conditions: Enterobacter cloacae
Procedure: as §1, §2

[20] = tested on: P. aeruginosa H1030 (MDR); conditions: Pseudomonas aeruginosa
Procedure: as §1, §2

SMILES | MIC [1] | MIC [2] | MIC [3] | MIC [4] | MIC [5] | MIC [6] | MIC [7] | MIC [8] | MIC [9] | MIC [10] | MIC [11] | MIC [12] | MIC [13] | MIC [14] | MIC [15] | MIC [16] | MIC [17] | MIC [18] | MIC [19] | MIC [20]
CC(C)(O/N=C(\C(=O)N[C@@H]1C(=O)N2C(C(=O)[O-])=C(C[n+]3ccccc3)CS[C@H]12)c1csc(N)n1)C(=O)O [Ceftazidime, reference compound] | 32 µg/mL (≈ 58.5 µM) | > 128 µg/mL | 128 µg/mL (≈ 234 µM) | > 128 µg/mL | 128 µg/mL (≈ 234 µM) | > 128 µg/mL | > 128 µg/mL | 0.3 µg/mL (≈ 0.549 µM) | > 128 µg/mL | 128 µg/mL (≈ 234 µM) | > 128 µg/mL | > 128 µg/mL | 16 µg/mL (≈ 29.3 µM) | 128 µg/mL (≈ 234 µM) | > 128 µg/mL | > 128 µg/mL | 64 µg/mL (≈ 117 µM) | 2 µg/mL (≈ 3.66 µM) | 32 µg/mL (≈ 58.5 µM) | –
O=C(O)c1cn(C2CC2)c2cc(N3CCNCC3)c(F)cc2c1=O [Ciprofloxacin, reference compound] | 0.5 µg/mL (≈ 1.51 µM) | 0.1 µg/mL (≈ 0.302 µM) | > 128 µg/mL | 32 µg/mL (≈ 96.6 µM) | 1 µg/mL (≈ 3.02 µM) | 128 µg/mL (≈ 386 µM) | > 128 µg/mL | 0.3 µg/mL (≈ 0.905 µM) | 32 µg/mL (≈ 96.6 µM) | 32 µg/mL (≈ 96.6 µM) | 128 µg/mL (≈ 386 µM) | 32 µg/mL (≈ 96.6 µM) | 0.1 µg/mL (≈ 0.302 µM) | 0.3 µg/mL (≈ 0.905 µM) | 64 µg/mL (≈ 193 µM) | 64 µg/mL (≈ 193 µM) | 2 µg/mL (≈ 6.04 µM) | 0.1 µg/mL (≈ 0.302 µM) | – | 0.3 µg/mL (≈ 0.905 µM)
C[C@@H](O)[C@H]1C(=O)N2C(C(=O)O)=C(SCCN=CN)C[C@H]12 [Imipenem, reference compound] | 1 µg/mL (≈ 3.34 µM) | 0.1 µg/mL (≈ 0.334 µM) | 0.1 µg/mL (≈ 0.334 µM) | 128 µg/mL (≈ 428 µM) | 8 µg/mL (≈ 26.7 µM) | 128 µg/mL (≈ 428 µM) | 0.1 µg/mL (≈ 0.334 µM) | 128 µg/mL (≈ 428 µM) | 2 µg/mL (≈ 6.68 µM) | 32 µg/mL (≈ 107 µM) | > 128 µg/mL | 2 µg/mL (≈ 6.68 µM) | 0.1 µg/mL (≈ 0.334 µM) | 0.5 µg/mL (≈ 1.67 µM) | 0.1 µg/mL (≈ 0.334 µM) | 128 µg/mL (≈ 428 µM) | 0.1 µg/mL (≈ 0.334 µM) | 2 µg/mL (≈ 6.68 µM) | 0.1 µg/mL (≈ 0.334 µM) | –
NC[C@H]1O[C@H](O[C@H]2[C@H](O)[C@@H](O[C@H]3O[C@H](CO)[C@@H](O)[C@H](N)[C@H]3O)[C@H](N)C[C@@H]2N)[C@H](N)C[C@@H]1O [Tobramycin, reference compound] | 4 µg/mL (≈ 8.56 µM) | 32 µg/mL (≈ 68.4 µM) | 64 µg/mL (≈ 137 µM) | 128 µg/mL (≈ 274 µM) | 32 µg/mL (≈ 68.4 µM) | > 128 µg/mL | 128 µg/mL (≈ 274 µM) | 4 µg/mL (≈ 8.56 µM) | 32 µg/mL (≈ 68.4 µM) | > 128 µg/mL | > 128 µg/mL | > 128 µg/mL | 0.3 µg/mL (≈ 0.642 µM) | 16 µg/mL (≈ 34.2 µM) | 16 µg/mL (≈ 34.2 µM) | > 128 µg/mL | > 128 µg/mL | 0.5 µg/mL (≈ 1.07 µM) | 0.5 µg/mL (≈ 1.07 µM) | 8 µg/mL (≈ 17.1 µM)
